As usually defined, the IC50 is the point on the concentration scale where inhibition reaches its midpoint.

Experimental findings from patent US12448392B2, “Spiropiperidine derivatives” (89BIO LTD, priority 2016, dated 2025) are described below.

Where a name gives a salt, the structure may show the parent alone.

T1 sequence (P49327 whole entry): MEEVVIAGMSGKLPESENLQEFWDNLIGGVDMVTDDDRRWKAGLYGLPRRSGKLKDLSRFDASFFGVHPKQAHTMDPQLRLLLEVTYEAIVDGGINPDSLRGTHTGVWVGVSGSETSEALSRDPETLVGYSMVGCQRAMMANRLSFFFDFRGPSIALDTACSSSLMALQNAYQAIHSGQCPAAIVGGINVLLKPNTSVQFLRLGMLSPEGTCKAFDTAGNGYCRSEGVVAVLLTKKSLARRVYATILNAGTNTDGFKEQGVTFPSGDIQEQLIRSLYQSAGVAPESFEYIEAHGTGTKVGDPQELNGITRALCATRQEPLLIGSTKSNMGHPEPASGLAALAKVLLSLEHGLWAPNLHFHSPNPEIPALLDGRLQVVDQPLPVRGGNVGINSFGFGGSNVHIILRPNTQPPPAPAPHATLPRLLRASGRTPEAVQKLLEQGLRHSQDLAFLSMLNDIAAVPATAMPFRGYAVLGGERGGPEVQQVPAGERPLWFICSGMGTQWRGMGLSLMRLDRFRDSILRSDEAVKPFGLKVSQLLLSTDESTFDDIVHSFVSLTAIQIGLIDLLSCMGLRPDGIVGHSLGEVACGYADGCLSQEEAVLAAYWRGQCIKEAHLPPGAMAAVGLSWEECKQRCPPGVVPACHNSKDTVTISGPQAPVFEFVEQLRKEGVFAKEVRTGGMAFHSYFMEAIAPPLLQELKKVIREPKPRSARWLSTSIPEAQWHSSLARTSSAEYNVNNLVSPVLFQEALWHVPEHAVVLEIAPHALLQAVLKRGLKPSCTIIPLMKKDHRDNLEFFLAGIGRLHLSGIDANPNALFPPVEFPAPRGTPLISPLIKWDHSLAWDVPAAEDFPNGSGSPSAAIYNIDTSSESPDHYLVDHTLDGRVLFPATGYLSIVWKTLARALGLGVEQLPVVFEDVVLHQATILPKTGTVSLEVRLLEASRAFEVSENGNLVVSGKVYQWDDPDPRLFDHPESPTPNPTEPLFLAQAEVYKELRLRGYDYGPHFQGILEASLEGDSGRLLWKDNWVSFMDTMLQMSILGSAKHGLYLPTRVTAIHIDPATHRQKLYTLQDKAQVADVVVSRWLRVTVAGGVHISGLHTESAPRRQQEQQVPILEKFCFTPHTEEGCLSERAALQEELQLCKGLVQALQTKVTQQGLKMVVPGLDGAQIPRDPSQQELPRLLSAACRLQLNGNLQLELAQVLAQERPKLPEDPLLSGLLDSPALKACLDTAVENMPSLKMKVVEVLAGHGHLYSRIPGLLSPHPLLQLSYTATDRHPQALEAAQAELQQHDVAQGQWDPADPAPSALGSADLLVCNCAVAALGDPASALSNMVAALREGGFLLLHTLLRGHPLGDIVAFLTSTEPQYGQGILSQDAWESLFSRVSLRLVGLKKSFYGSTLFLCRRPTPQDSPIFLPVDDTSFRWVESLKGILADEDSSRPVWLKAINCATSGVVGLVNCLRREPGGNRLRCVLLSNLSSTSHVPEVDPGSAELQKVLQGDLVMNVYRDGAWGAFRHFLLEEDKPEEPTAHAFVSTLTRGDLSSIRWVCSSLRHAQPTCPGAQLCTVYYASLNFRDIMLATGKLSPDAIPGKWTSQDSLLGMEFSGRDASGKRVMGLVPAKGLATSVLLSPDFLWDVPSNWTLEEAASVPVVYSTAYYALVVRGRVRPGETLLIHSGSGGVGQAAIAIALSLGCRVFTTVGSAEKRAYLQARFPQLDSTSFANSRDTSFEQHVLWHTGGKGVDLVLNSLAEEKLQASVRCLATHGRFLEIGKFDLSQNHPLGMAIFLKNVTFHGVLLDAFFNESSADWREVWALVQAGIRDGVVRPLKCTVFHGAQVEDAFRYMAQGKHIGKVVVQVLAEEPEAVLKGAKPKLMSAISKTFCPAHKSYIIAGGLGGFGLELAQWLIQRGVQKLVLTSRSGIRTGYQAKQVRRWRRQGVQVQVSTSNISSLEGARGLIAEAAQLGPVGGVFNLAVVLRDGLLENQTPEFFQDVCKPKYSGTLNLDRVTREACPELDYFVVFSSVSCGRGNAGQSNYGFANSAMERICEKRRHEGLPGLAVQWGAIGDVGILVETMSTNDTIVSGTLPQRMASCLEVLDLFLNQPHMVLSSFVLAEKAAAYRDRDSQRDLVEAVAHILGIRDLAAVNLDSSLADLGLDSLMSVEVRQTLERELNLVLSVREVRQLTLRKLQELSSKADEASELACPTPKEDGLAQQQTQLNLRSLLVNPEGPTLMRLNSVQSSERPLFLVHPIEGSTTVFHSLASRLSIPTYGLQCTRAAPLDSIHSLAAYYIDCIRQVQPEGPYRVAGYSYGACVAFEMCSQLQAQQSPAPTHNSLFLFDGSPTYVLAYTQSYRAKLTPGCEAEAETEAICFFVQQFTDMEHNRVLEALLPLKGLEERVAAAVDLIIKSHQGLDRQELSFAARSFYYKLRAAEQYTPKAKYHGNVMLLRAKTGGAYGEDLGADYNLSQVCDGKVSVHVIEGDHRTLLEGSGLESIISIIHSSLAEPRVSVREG

The first assay has as its target T1, recombinant human baculovirus-expressed GST-tagged FASN (Homo sapiens, UniProt P49327).
T1 construct: GST
The experiment in a line: biochemical.
Settings: not given
In the case of `CCOC(=O)N1CCC2(CC1)OCc1cc(-c3ccc4cnc(Cl)cc4c3)ccc1O2` [Example 198, Ethyl 6-(3-chloro-6-isoquinolyl)spiro[4H-1,3-benzodioxine-2,4′-piperidine]-1′-carboxylate], the IC50 was 1000 to 10000 nM.

With `Cc1nccc2cc(-c3ccc4c(c3)COC3(CCN(C(=O)NO)CC3)O4)ccc12` [Example 199, 6-(1-Methyl-6-isoquinolyl)spiro[4H-1,3-benzodioxine-2,4′-piperidine]-1′-carbohydroxamic acid], the IC50 is 1000 to 10000 nM.

In the case of `CCOC(=O)N1CCC2(CC1)OCc1cc(-c3ccc4cnc(C)cc4c3)ccc1O2` [Example 200, Ethyl 6-(3-methyl-6-isoquinolyl)spiro[4H-1,3-benzodioxine-2,4′-piperidine]-1′-carboxylate], the IC50 was 1000 to 10000 nM.

As to `Cc1cc2cc(-c3ccc4c(c3)COC3(CCN(C(N)=O)CC3)O4)ccc2cn1` [Example 201, 6-(3-Methyl-6-isoquinolyl)spiro[4H-1,3-benzodioxine-2,4′-piperidine]-1′-carboxamide], the IC50 was 1000 to 10000 nM.

Take `CCNC(=O)N1CCC2(CC1)OCc1cc(-c3ccc4cnc(C)cc4c3)ccc1O2` [Example 202, N-Ethyl-6-(3-methyl-6-isoquinolyl)spiro[4H-1,3-benzodioxine-2,4′-piperidine]-1′-carboxamide]: the IC50 was in the range of 1 to 99 nM.

Consider `CCONC(=O)N1CCC2(CC1)OCc1cc(-c3ccc4cnc(C)cc4c3)ccc1O2` [Example 203, N-Ethoxy-6-(3-methyl-6-isoquinolyl)spiro[4H-1,3-benzodioxine-2,4′-piperidine]-1′-carboxamide], for which the IC50 is 1 to 99 nM.

On to `Cc1cc2cc(-c3ccc4c(c3)COC3(CCN(C(=O)NO)CC3)O4)ccc2cn1` [Example 204, 6-(3-Methyl-6-isoquinolyl)spiro[4H-1,3-benzodioxine-2,4′-piperidine]-1′-carbohydroxamic acid], for which the IC50 was 100 to 999 nM.

Turning to `CONC(=O)N1CCC2(CC1)OCc1cc(-c3ccc4cnc(C)cc4c3)ccc1O2` [Example 205, N-Methoxy-6-(3-methyl-6-isoquinolyl)spiro[4H-1,3-benzodioxine-2,4′-piperidine]-1′-carboxamide], the IC50 fell in the range of 1 to 99 nM.

`CCC(=O)N1CCC2(CC1)OCc1cc(-c3ccccn3)ccc1O2` [Example 218, 1-[6-(2-Pyridyl)spiro[4H-1,3-benzodioxine-2,4′-piperidine]-1′-yl]propan-1-one, HCl]: the IC50 fell in the range of 1000 to 10000 nM.

As for `O=C(C1CC1)N1CCC2(CC1)OCc1cc(-c3ccccn3)ccc1O2` [Example 219, Cyclopropyl-[6-(2-pyridyl)spiro[4H-1,3-benzodioxine-2,4′-piperidine]-1′-yl]methanone, HCl], the IC50 was 1000 to 10000 nM.

Take `O=C([C@H]1CCCO1)N1CCC2(CC1)OCc1cc(-c3ccccn3)ccc1O2` [Example 220, [6-(2-Pyridyl)spiro[4H-1,3-benzodioxine-2,4′-piperidine]-1′-yl]-[(2R)-tetrahydrofuran-2-yl]methanone, HCl]: the IC50 was 100 to 999 nM.

For the molecule `CCC(=O)N1CCC2(CC1)OCc1cc(-c3cccnc3)ccc1O2` [Example 224, 1-[6-(3-Pyridyl)spiro[4H-1,3-benzodioxine-2,4′-piperidine]-1′-yl]propan-1-one, HCl], the IC50 fell in the range of 1000 to 10000 nM.

Consider `O=C(C1CC1)N1CCC2(CC1)OCc1cc(-c3cccnc3)ccc1O2` [Example 225, Cyclopropyl-[6-(3-pyridyl)spiro[4H-1,3-benzodioxine-2,4′-piperidine]-1′-yl]methanone, HCl], for which the IC50 lay within 1000 to 10000 nM.

Consider `O=C([C@H]1CCCO1)N1CCC2(CC1)OCc1cc(-c3cccnc3)ccc1O2` [Example 229, [6-(3-Pyridyl)spiro[4H-1,3-benzodioxine-2,4′-piperidine]-1′-yl]-[(2R)-tetrahydrofuran-2-yl]methanone], for which the IC50 fell in the range of 100 to 999 nM.

Take `O=C(C1CC1)N1CCC2(CC1)OCc1cc(-c3ccncc3)ccc1O2` [Example 230, Cyclopropyl-[6-(4-pyridyl)spiro[4H-1,3-benzodioxine-2,4′-piperidine]-1′-yl]-methanone, HCl]: the IC50 is 1000 to 10000 nM.

For `O=C([C@H]1CCCO1)N1CCC2(CC1)OCc1cc(-c3ccncc3)ccc1O2` [Example 231, [6-(4-Pyridyl)spiro[4H-1,3-benzodioxine-2,4′-piperidine]-1′-yl]-[(2R)-tetrahydrofuran-2-yl]methanone, HCl], the IC50 is 100 to 999 nM.

For `CCC(=O)N1CCC2(CC1)OCc1cc(-c3ccncc3)ccc1O2` [Example 232, 1-[6-(4-Pyridyl)spiro[4H-1,3-benzodioxine-2,4′-piperidine]-1′-yl]propan-1-one, HCl], the IC50 was 1000 to 10000 nM.

The assay is the same for the next values; noted with them: 5 nM FASN, 150 μM NADPH, 10 μM acetyl-CoA, 25 μM malonyl-CoA, 90 minutes incubation; read-out: IC50 data for Compounds of Formula I, Activity.
In the case of `Cc1cc2cc(-c3ccc4c(c3)CCC3(CCN(C(N)=O)CC3)O4)ccc2cn1` [Example 206, 6-(3-Methyl-6-isoquinolyl)spiro[chromane-2,4′-piperidine]-1′-carboxamide], the IC50 fell in the range of 1000 to 10000 nM.

In the case of `CCONC(=O)N1CCC2(CCc3cc(-c4ccc5cnc(C)cc5c4)ccc3O2)CC1` [Example 207, N-Ethoxy-6-(3-methyl-6-isoquinolyl)spiro[chromane-2,4′-piperidine]-1′-carboxamide], the IC50 was in the range of 1 to 99 nM.

On to `CCNC(=O)N1CCC2(CCc3cc(-c4ccc5cnc(C)cc5c4)ccc3O2)CC1` [Example 208, N-Ethyl-6-(3-methyl-6-isoquinolyl)spiro[chromane-2,4′-piperidine]-1′-carboxamide], for which the half-maximal inhibitory concentration (IC50) was in the range of 100 to 999 nM.

With `CONC(=O)N1CCC2(CCc3cc(-c4ccc5cnc(C)cc5c4)ccc3O2)CC1` [Example 209, N-Methoxy-6-(3-methyl-6-isoquinolyl)spiro[chromane-2,4′-piperidine]-1′-carboxamide], the IC50 lay within 1 to 99 nM.

For `CONC(=O)N1CCC2(CCc3cc(-c4ccc5cccnc5c4OC)ccc3O2)CC1` [Example 210, N-Methoxy-6-(8-methoxy-7-quinolyl)spiro[chromane-2,4′-piperidine]-1′-carboxamide], the IC50 was 1 to 99 nM.

Consider `CCONC(=O)N1CCC2(CCc3cc(-c4ccc5cccnc5c4OC)ccc3O2)CC1` [Example 211, N-Ethoxy-6-(8-methoxy-7-quinolyl)spiro[chromane-2,4′-piperidine]-1′-carboxamide], for which the 50% inhibitory concentration (IC50) fell in the range of 1 to 99 nM.

For `Cc1c(-c2ccc3c(c2)C(=O)CC2(CCN(C(N)=O)CC2)O3)ccc2cccnc12` [Example 212, 6-(8-methyl-7-quinolyl)-4-oxo-spiro[chromane-2,4′-piperidine]-1′-carboxamide], the IC50 lay within 100 to 999 nM.

Regarding `Cc1c(-c2ccc3c(c2)C(O)CC2(CCN(C(N)=O)CC2)O3)ccc2cccnc12` (centres unmarked) [Example 213, 4-Hydroxy-6-(8-methyl-7-quinolyl)spiro[chromane-2,4′-piperidine]-1′-carboxamide], the IC50 fell in the range of 100 to 999 nM.

With `CCC(=O)N1CCC2(CCc3cc(-c4ccccn4)ccc3O2)CC1` [Example 215, 1-[6-(2-Pyridyl)spiro[chromane-2,4′-piperidine]-1′-yl]propan-1-one, HCl], the IC50 lay in the range of 1000 to 10000 nM.

Turning to `O=C(C1CC1)N1CCC2(CCc3cc(-c4ccccn4)ccc3O2)CC1` [Example 216, Cyclopropyl-[6-(2-pyridyl)spiro[chromane-2,4′-piperidine]-1′-yl]methanone, HCl], the IC50 lay within 1000 to 10000 nM.

In the case of `O=C([C@H]1CCCO1)N1CCC2(CCc3cc(-c4ccccn4)ccc3O2)CC1` [Example 217, [6-(2-Pyridyl)spiro[chromane-2,4′-piperidine]-1′-yl]-[(2R)-tetrahydrofuran-2-yl]methanone, HCl], the IC50 was in the range of 1000 to 10000 nM.

Turning to `CCC(=O)N1CCC2(CCc3cc(-c4cccnc4)ccc3O2)CC1` [Example 221, 1-[6-(3-Pyridyl)spiro[chromane-2,4′-piperidine]-1′-yl]propan-1-one, HCl], the IC50 lay within 1000 to 10000 nM.

As for `O=C(C1CC1)N1CCC2(CCc3cc(-c4cccnc4)ccc3O2)CC1` [Example 222, Cyclopropyl-[6-(3-pyridyl)spiro[chromane-2,4′-piperidine]-1′-yl]methanone, HCl], the IC50 lay within 1000 to 10000 nM.

For the molecule `O=C([C@H]1CCCO1)N1CCC2(CCc3cc(-c4cccnc4)ccc3O2)CC1` [Example 223, [6-(3-Pyridyl)spiro[chromane-2,4′-piperidine]-1′-yl]-[(2R)-tetrahydrofuran-2-yl]methanone, HCl], the IC50 lay within 100 to 999 nM.

For `CCC(=O)N1CCC2(CCc3cc(-c4ccncc4)ccc3O2)CC1` [Example 226, 1-[6-(4-Pyridyl)spiro[chromane-2,4′-piperidine]-1′-yl]propan-1-one, HCl], the IC50 fell in the range of 1000 to 10000 nM.

Regarding `O=C(C1CC1)N1CCC2(CCc3cc(-c4ccncc4)ccc3O2)CC1` [Example 227, Cyclopropyl-[6-(4-pyridyl)spiro[chromane-2,4′-piperidine]-1′-yl]methanone, HCl], the IC50 is 1000 to 10000 nM.

For the molecule `O=C([C@H]1CCCO1)N1CCC2(CCc3cc(-c4ccncc4)ccc3O2)CC1` [Example 228, [6-(4-Pyridyl)spiro[chromane-2,4′-piperidine]-1′-yl]-[(2R)-tetrahydrofuran-2-yl]methanone, HCl], the IC50 is 100 to 999 nM.

Consider `Cc1nccc2cc(-c3cc4c(cc3F)OC3(CC4)CCN(C(N)=O)CC3)ccc12` [Example 234, 7-Fluoro-6-(1-methyl-6-isoquinolyl)spiro[chromane-2,4′-piperidine]-1′-carboxamide], for which the concentration for half-maximal inhibition (IC50) lay in the range of 1000 to 10000 nM.

Consider `NC(=O)N1CCC2(CCc3cc(-c4cc5ccccc5o4)ccc3O2)CC1` [Example 235, 6-(Benzofuran-2-yl)spiro[chromane-2,4′-piperidine]-1′-carboxamide], for which the IC50 was 1000 to 10000 nM.

Take `NC(=O)N1CCC2(CCc3cc(-c4cc5ccccc5[nH]4)ccc3O2)CC1` [Example 236, 6-(1H-Indol-2-yl)spiro[chromane-2,4′-piperidine]-1′-carboxamide]: the IC50 was in the range of 1000 to 10000 nM.

In the case of `Cc1c(-c2cc(F)c3c(c2)CCC2(CCN(C(N)=O)CC2)O3)ccc2cccnc12` [Example 237, 8-Fluoro-6-(8-methyl-7-quinolyl)spiro[chromane-2,4′-piperidine]-1′-carboxamide], the IC50 lay within 1 to 99 nM.
